# Data: patent US8865738B2, “5-membered heterocyclic compound cyclopenta[C]pyrrolylalkylcarbamate derivatives, preparation thereof, and therapeutic use thereof” (Sanofi, priority 2009, dated 2014)
# Key:
# [1] = target: T1, FAAH (Fatty Acid Amide Hydrolase) (Mus musculus, UniProt O08914); experiment: radioenzymatic test, hydrolysis of anandamide [ethanolamine 1-3H] with FAAH (protocol 1); assay type: biochemical; settings: mouse brain membrane homogenate, anandamide 10 μM, 20 min preincubation at 25° C., read-out: IC50 (concentration that inhibits 50% of the control enzymatic activity of FAAH)
# T1 construct: The membrane homogenates are prepared extemporaneously by homogenizing the tissues; from tissue; host or cells: mouse brain (minus the cerebellum), membrane homogenate
# T1 sequence (O08914 1-579): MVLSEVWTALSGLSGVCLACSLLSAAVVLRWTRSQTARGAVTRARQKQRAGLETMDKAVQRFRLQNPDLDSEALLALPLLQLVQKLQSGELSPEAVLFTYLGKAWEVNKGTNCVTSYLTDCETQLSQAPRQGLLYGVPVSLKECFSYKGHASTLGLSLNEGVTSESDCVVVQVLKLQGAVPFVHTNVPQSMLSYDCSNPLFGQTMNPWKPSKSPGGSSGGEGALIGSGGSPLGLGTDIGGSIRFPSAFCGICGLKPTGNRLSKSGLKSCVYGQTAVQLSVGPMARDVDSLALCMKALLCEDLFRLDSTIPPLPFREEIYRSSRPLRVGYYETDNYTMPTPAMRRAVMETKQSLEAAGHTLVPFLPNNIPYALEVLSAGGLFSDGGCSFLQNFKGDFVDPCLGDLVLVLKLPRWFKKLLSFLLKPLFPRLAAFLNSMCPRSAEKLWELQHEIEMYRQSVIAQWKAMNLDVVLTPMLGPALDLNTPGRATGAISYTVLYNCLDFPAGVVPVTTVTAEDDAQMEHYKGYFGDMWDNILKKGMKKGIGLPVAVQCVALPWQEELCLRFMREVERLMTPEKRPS
# Description: (§1) The compounds of the invention underwent pharmacological tests to determine their inhibitory effect on the enzyme FAAH (Fatty Acid Amide Hydrolase).
# Thus, mouse brains (minus the cerebellum) are removed and stored at −80° C. The membrane homogenates are prepared extemporaneously by homogenizing the tissues using a Precellys® machine in reaction buffer (10 mM Tris-HCl, pH=8, 150 mM NaCl and 1 mM ethylenediaminetetraacetic acid (EDTA)). The enzymatic reaction is performed in 96-well Multiscreen filtration plates in a final volume of 70 μl. Reaction buffer supplemented with fatty acid-free bovine serum albumin (BSA, 1 mg/ml) is used for the enzymatic reaction and the dilution of the compounds and of the anandamide [ethanolamine 1-^3H]. The reaction buffer containing BSA (43 μl/well), the diluted test compounds at various concentrations (7 μl/well containing 1% DMSO) and the membrane preparation (10 μl/well, i.e. 200 μg of tissue per test) are successively added to the wells. After preincubation for 20 minutes of the compounds with the enzyme at 25° C., the reaction is started by adding anandamide [ethanolamine 1-^3H](specific activity of 15-20 Ci/mmol) diluted with cold anandamide (10 μl/well, final concentration of 10 μM, 0.01 μCi per test). After incubation for 20 minutes at 25° C., the enzymatic reaction is stopped by adding a 5M solution of activated carbon prepared in 1.5M NaCl buffer and 0.5M HCl (50 μl/well). The mixture is stirred for 10 minutes then the aqueous phase containing the ethanolamine [1-^3H] is recovered by filtration under vacuum and counted by liquid scintillation.
# [2] = target: T1, FAAH (Fatty Acid Amide Hydrolase); experiment: fluorescent enzymatic test, hydrolysis of AAMC with FAAH (protocol 2); assay type: biochemical; settings: mouse brain homogenate, AAMC 10 μM, 40 min at 37° C., read-out: IC50 (concentration that inhibits 50% of the control enzymatic activity of FAAH)
# Description: as §1
# Thus, mouse brains (minus the cerebellum) are withdrawn and stored at −80° C. The brain homogenates are prepared extemporaneously by homogenizing the tissues using a Precellys® machine in reaction buffer (10 mM Tris-HCl, pH=8, 150 mM NaCl and 1 mM ethylenediamine-tetraacetic acid (EDTA)). The enzymatic reaction is performed in black polystyrene 384-well plates in a final volume of 50 μL. Reaction buffer supplemented with fatty acid-free bovine serum albumin (BSA, 1 mg/ml) is used for the enzymatic reaction, the dilution of the compounds and the dilution of the AAMC. Reaction buffer containing the BSA (25 μl/well), the diluted test compounds at various concentrations (5 μl/well containing 1% DMSO) and the membrane preparation (10 μL/well, i.e. 200 μg of tissue per test) are successively added to the wells. After preincubation for 20 minutes of the compounds with the enzyme at 25° C., the reaction is started by adding 10 μL of substrate per well (AAMC, final concentration of 10 μM). After incubation for 40 minutes at 37° C., the aminomethyl coumarin (AMC) produced is measured by fluorescent counting (Envision plate reader).
melting point [°C],IC50 [1] [nM],IC50 [2] [nM],SMILES
157 to 159,2.4,–,"CNC(=O)c1cc(COC(=O)NCC[C@@H]2C[C@@H]3CN(c4ccc(Br)cn4)C[C@@H]3C2)on1 [Compound No. 10, [3-(methylcarbamoyl)isoxazol-5-yl]methyl {2-[(3aR,5r,6aS)-2-(5-bromopyrid-2-yl)octahydrocyclopenta[c]-pyrrol-5-yl]ethyl}carbamate (endo)]"
–,200,–,"O=C(NC[C@H]1C[C@@H]2CN(c3cccc(C(F)(F)F)n3)C[C@@H]2C1)OCc1cscn1 [Compound No. 1, thiazol-4-ylmethyl ({(3aR,5s,6aS)-2-[6-(trifluoro-methyl)pyrid-2-yl]octahydrocyclopenta[c]pyrrol-5-yl}methyl)carbamate (exo)]"
129 to 131,0.98,–,"O=C(NC[C@H]1C[C@@H]2CN(c3ccc(-c4ccc(F)cc4)cn3)C[C@@H]2C1)OCc1cscn1 [Compound No. 3, thiazol-4-ylmethyl ({(3aR,5s,6aS)-2-[5-(4-fluoro-phenyl)pyrid-2-yl]octahydrocyclopenta[c]pyrrol-5-yl}-methyl)carbamate (exo)]"
136 to 138,1.1,–,"Cn1ncnc1COC(=O)NC[C@H]1C[C@@H]2CN(c3cccc(-c4cncc(F)c4)n3)C[C@@H]2C1 [Compound No. 8, (1-methyl-1H-1,2,4-triazol-5-yl)methyl {[(3aR,5s,6aS)-2-(5′-fluoro-2,3′-bipyrid-6-yl)octahydrocyclopenta[c]-pyrrol-5-yl]methyl}carbamate (exo)]"
–,170,–,"Cn1ncnc1COC(=O)NC[C@H]1C[C@@H]2CN(c3ccc(-c4ccc(F)cc4)cn3)C[C@@H]2C1 [compound 7, (1-methyl-1H-1,2,4-triazol-5-yl)methyl ({(3aR,5s,6aS)-2-[5-(4-fluorophenyl)pyrid-2-yl]octahydrocyclopenta[c]-pyrrol-5-yl}methyl)carbamate (exo)]"
–,8.5,–,"Cn1cc(-c2ccc(N3CC4CC(CNC(=O)OCc5cscn5)CC4C3)nc2)cn1 [compound 4, thiazol-4-ylmethyl ({(3aR,5s,6aS)-2-[5-(1-methyl-1H-pyrazol-4-yl)pyrid-2-yl]octahydrocyclopenta[c]pyrrol-5-yl}methyl)carbamate (exo)]"
220 to 222,–,12,"CNC(=O)c1cc(COC(=O)NC2C3CN(c4ccc5cc(F)ccc5n4)CC32)on1 (centres unmarked) [Compound No. 14, [3-(methylcarbamoyl)isoxazol-5-yl]methyl [3-(6-fluoro-quinolin-2-yl)-3-azabicyclo[3.1.0]hex-6-yl]carbamate]"
